Read-outs that look alike come from different tables or passages of the source. Marks after values point to notes of the source that are not given here.
What was measured:
[1] = ref https://pubchem.ncbi.nlm.nih.gov, cited from earlier work; for Polar surface area: topological
[2] = target: recombinant CpPyK (rCpPyK) protein (Cryptosporidium parvum, UniProt Q5CSM7); experiment: rCpPyK enzymatic activity inhibition assay (ATP detection, Cell Titer-Glo luminescence); assay type: biochemical
Method: (§1) The in vitro enzymatic activity of the rCpPyK protein was determined by quantitating the amount of ATP produced by the transfer of a phosphate group from phosphoenolpyruvate to adenosine diphosphate (ADP) in the presence of varying concentrations of the recombinant protein (Figure 1A). A typical assay contained 0.5 mM phosphoenolpyruvate, 0.6 mM ADP, 50 mM Tris buffer pH 7.5, 60 mM MgSO4, 100 mM KCl, and varying concentrations of rCpPyK incubated for 3 h at room temperature. The ATP generated was detected in a reaction volume of 50 μl in white opaque-walled 96 well plates by the luciferase-based Cell Titer-Glo 2.0 reagent (Promega) following the manufacturer’s instructions. The enzyme kinetics of rCpPyK were determined by using varying phosphoenolpyruvate (0–8 mM) and ADP (0–2 mM) concentrations in an enzymatic reaction catalyzed by a fixed concentration of the recombinant protein (6 ng/μl). In all assays, reaction mixtures without rCpPyK were included as negative controls. Three independent assays were performed for each experiment, and samples were run in triplicate. The luminescence generated was recorded using a multi-mode microplate reader (Spectra Max iD3; Molecular Devices, United States). GraphPad PRISM® v8 software was used to fit the Michaelis–Menten model directly to the substrate-velocity data to determine the enzymatic kinetic parameters for rCpPyK.
The Diversity Set VI chemical library (Supplementary Table 1) was obtained from the National Cancer Institute (NCI)/Developmental Therapeutics Program (DTP) Open Repository collection of chemical compounds.^1 Compounds were individually reconstituted in molecular biology grade dimethyl sulfoxide (DMSO) from Sigma-Aldrich and stored at −20°C. From the library, 1,424 compounds were screened in 96-well plates using the rCpPyK catalyzed enzyme assay to identify potential CpPyK inhibitors. The reactions were performed in 50 μl reaction volume containing 0.5 mM phosphoenolpyruvate, 0.6 mM ADP, 50 mM Tris buffer pH 7.5, 60 mM MgSO4, 100 mM KCl, and 6 ng/μl of rCpPyK protein with or without compound. The concentration of DMSO in all reaction mixtures was 1% (v/v). Control reactions without rCpPyK protein were included for background subtraction. Following 3 h of incubation at room temperature, an equal volume of the Cell Titer-Glo 2.0 reagent was added to each well, and the luminescence produced was recorded as relative luminescence units (RLU) after 10 min of incubation using a multi-mode microplate reader (Spectra Max iD3; Molecular Devices, United States). The mean percent inhibition (MPI) of rCpPyK activity by each compound was derived by dividing the difference in luminescence (RLU) between the compound-treated wells and the DMSO-treated wells by the luminescence of the DMSO-treated wells and multiplying the product by 100:
(1) MPI=[(MeanRLUDMSO-treated-MeanRLUCompound-treated)÷MeanRLUDMSO-treated]×100.
Half maximal inhibitory concentration (IC50) values were determined by applying a non-linear regression analysis curve fit to the mean dose-response data for varying concentrations of each compound using GraphPad PRISM® v8. Reactions were performed in triplicate and repeated at least thrice.

[3] = In vitro compound cytotoxicity assay (WST-1); assay type: cell-based; conditions: human, uninfected HCT-8 cells
Method: Compounds were tested for cytotoxicity in human ileocecal colorectal adenocarcinoma cells [HCT-8 (HRT-18); ATCC® CCL-244™, CVCL_2478] by using the cell proliferation reagent WST-1 (Roche) according to the manufacturer’s protocol. The WST-1 assay is a quantitative colorimetric assay for measurement of metabolically active cells. This assay is based on the reduction of the tetrazolium salt (WST-1) by viable cells. About 5 × 10^4 HCT-8 cells were seeded per well in 96-well plates and grown overnight in 200 μl of RPMI-1640 medium (without phenol red) (Gibco) supplemented with 2.5 g/L of glucose, 1 mM sodium pyruvate, 1.5 g/L of sodium bicarbonate, 10% heat-inactivated FBS (Gibco), and 1 × Antibiotic-Antimycotic (Gibco) at 37°C with 5% CO2 in a humidified incubator. Upon reaching 80–90% confluency, cells were treated with the chemical compounds reconstituted in DMSO for 24 h. The volume of DMSO was kept below 1% of the total culture volume in all the wells to avoid DMSO cytotoxicity. Control wells received equivalent volumes of DMSO used in the reconstituted compounds. After 24 h of culture, 10 μl of the WST-1 reagent was added to each well, and the plates were incubated for 1 h at 37°C with 5% CO2 under dark conditions. The plates were shaken thoroughly and 150 μl of the medium from each well was transferred to a new clear flat-bottom black 96-well plate (Corning). Absorbance was read at a test wavelength of 440 nm and a reference wavelength of 690 nm using a multi-mode microplate reader (Spectra Max iD3; Molecular Devices, United States). The mean percent toxicity (MPT) of each compound was derived by dividing the difference in absorbance (OD) between the compound-treated cells and the DMSO-treated cells by the absorbance from the DMSO-treated cells and multiplying the product by 100:
(2) MPT=[(MeanODDMSO-treated-MeanODCompound-treated)÷MeanODDMSO-treated]×100.
The half maximal cytotoxic concentration (CC50) values were determined by using non-linear regression analysis in GraphPad PRISM® v8. Assays were performed in triplicate and repeated three times.

C. parvum = experiment: In vitro anti-Cryptosporidium activity in infected HCT-8 cells (immunofluorescence assay); assay type: cell-based, Cryptosporidium parvum; conditions: for effect on in vitro proliferation and viability of C. parvum: 25 μM, added immediately after infection, 48 h of culture, vs untreated parasites; for EC50: Cryptosporidium parvum; for effect on proliferation of intracellular C. parvum in HCT-8 cells: varying concentrations, 0 h or 2 h PI, analysed 48 h PI, vs infected cultures without compound
Method: Once confluent, the cells were infected with 10^5 freshly excysted C. parvum sporozoites per well, immediately followed by the addition of anti-CpPyK compounds (reconstituted in DMSO) to one set of wells. Control infected cells were treated with DMSO volumes equivalent to those used for the compound-treated cultures. Paromomycin reconstituted in distilled sterile water, served as a positive control at a concentration of 200 μM. […] Briefly, the medium was removed from the culture wells, and the cells were washed two times with PBS before fixation with pre-chilled methanol-acetic acid (9:1) for 5 min at room temperature. Residual fixative was removed by rinsing the wells with PBS. Cells were rehydrated and permeabilized by washing twice with a buffer containing 0.1% Triton X-100, 0.35 M NaCl, and 0.13 M Tris-base, pH 7.6. Normal goat serum (5% in PBS) was used as a blocking agent, and the cell monolayer was stained with a fluorescein-labeled anti-C. parvum polyclonal antibody (Sporo-Glo™; Waterborne, Inc.) overnight at 4°C. The stained cells were washed twice with PBS followed by the addition of 200 μl water to each well. Plates were then imaged with an inverted fluorescence microscope using a 20× objective. The fluorescence generated by intracellular C. parvum parasites was quantified from nine microscopic fields per well of a 96-well plate using the batch process function in ImageJ version v1.50 (NIH, United States) after setting a threshold for the detection of parasites. Control wells with uninfected monolayers were included for background subtraction. Experiments were performed in triplicate and repeated at least three times.
One set of wells with confluent HCT-8 cells received CpPyK inhibitors immediately after C. parvum infection, while the same compounds were added to the other set of wells 2 h post-infection (PI). Control infected cells were treated with varying volumes of DMSO equivalent to the ones used for the compound-treated cultures. Cell monolayers were processed for immunofluorescence analysis after 48 h of incubation as described above. Samples were run in triplicate and three independent assays were performed. EC50 values were calculated using non-linear regression analysis of the mean dose-response curve data in GraphPad PRISM® v8.

[4] = Physicochemical properties adapted from PubChem; conditions: based on Supplementary Table 2 properties
From the text: Supplementary Table S2. Physicochemical properties of identified CpPyK inhibitors (Adapted from: https://pubchem.ncbi.nlm.nih.gov).
NSC Molecular Molecular Number of Number of Number of Polar number IUPAC name formula weight cLog(p) Hydrogen bond Hydrogen bond rotatable surface donors acceptors bonds area (Å²) […]

Solubility = assay type: physicochemical; conditions: solvent not stated
rCpPyK = target: T1, rCpPyK (Cryptosporidium parvum, UniProt Q5CSM7); conditions: previously reported for CpPyK; ref Denton et al. (1996); cited from earlier work
T1 sequence (Q5CSM7 7-532): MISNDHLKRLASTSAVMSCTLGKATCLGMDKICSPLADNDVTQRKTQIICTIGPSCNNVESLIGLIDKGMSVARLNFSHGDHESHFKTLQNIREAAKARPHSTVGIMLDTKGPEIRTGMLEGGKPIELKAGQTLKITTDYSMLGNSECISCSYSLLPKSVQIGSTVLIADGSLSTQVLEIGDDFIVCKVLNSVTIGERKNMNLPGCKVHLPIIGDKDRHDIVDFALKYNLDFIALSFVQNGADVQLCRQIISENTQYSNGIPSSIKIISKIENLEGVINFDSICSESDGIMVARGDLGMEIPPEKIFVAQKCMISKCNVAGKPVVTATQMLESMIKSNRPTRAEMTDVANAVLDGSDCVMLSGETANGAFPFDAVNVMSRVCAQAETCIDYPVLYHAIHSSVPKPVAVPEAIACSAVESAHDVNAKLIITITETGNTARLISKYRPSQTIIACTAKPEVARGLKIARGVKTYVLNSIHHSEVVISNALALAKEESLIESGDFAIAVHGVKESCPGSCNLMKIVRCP

[5] = substrate: C=C(OP(=O)(O)O)C(=O)O; experiment: rCpPyK enzyme kinetics on substrates (Michaelis–Menten); assay type: biochemical, Cryptosporidium parvum; conditions: other: 6 ng/μl rCpPyK, varying substrate; pH 7.5
Method: as §1

[6] = substrate: Nc1ncnc2c1ncn2[C@@H]1O[C@H](COP(=O)(O)OP(=O)(O)O)[C@@H](O)[C@H]1O; experiment: as above; assay type: biochemical, Cryptosporidium parvum; conditions: other: 6 ng/μl rCpPyK, varying substrate; pH 7.5
Method: as §1

[7] = HCT-8, read-out: Anti-C. parvum EC50, 0 h PI
[8] = HCT-8, read-out: Anti-C. parvum EC50, 2 h PI

## COc1cccc(/C=C2\CCc3ccccc3C2=O)c1 [NSC636718, (2E)-2-[(3-methoxyphenyl)methylidene]-3,4-dihydronaphthalen-1-one]
[1]
  Number of Hydrogen bond acceptors: 2
  Number of Hydrogen bond donors: 0
  Polar surface area: 26.3 Å²
[2]; 6 ng/μl rCpPyK, 3 h at room temperature, read-out: Enzyme inhibition IC50
  IC50: 117 µM
[3]
  CC50 at 24 h: 106 µM
C. parvum
  effect on in vitro proliferation and viability of C. parvum: significant inhibitory effect
  effect on proliferation of intracellular C. parvum in HCT-8 cells: significant (P < 0.05) concentration-dependent inhibitory effect
C. parvum; [7]
  EC50: 33.8 µM
C. parvum; [8]
  EC50: 33.6 µM
C. parvum; HCT-8 CC50 / anti-C. parvum EC50
  Selectivity index (CC50/EC50): 3.15
[4]
  conformity to Lipinski's and Veber's rules for drug-likeness: conform

## CN(C)c1ccc(/C=C/C(=O)c2cc(Cl)ccc2O)cc1 [NSC11437, (E)-1-(5-chloro-2-hydroxyphenyl)-3-[4-(dimethylamino)phenyl]prop-2-en-1-one]
[1]
  Number of Hydrogen bond acceptors: 3
  Number of Hydrogen bond donors: 1
  Polar surface area: 40.5 Å²
[2]
  IC50: 156 µM
[3]
  CC50 at 24 h: 612 µM
C. parvum
  effect on in vitro proliferation and viability of C. parvum: significant inhibitory effect
  effect on proliferation of intracellular C. parvum in HCT-8 cells: significant (P < 0.05) concentration-dependent inhibitory effect
C. parvum; [7]
  EC50: 23.8 µM
C. parvum; [8]
  EC50: 27.3 µM
[4]
  conformity to Lipinski's and Veber's rules for drug-likeness: conform
Solubility
  solubility: low solubility

## C=C(OP(=O)(O)O)C(=O)O [Phosphoenolpyruvate, phosphoenolpyruvate]
rCpPyK
  Km: 320 µM
  Vmax: 6.82 nmol/µg/min

B1: rCpPyK (Cryptosporidium parvum Iowa II) (protein)
chain: T1 sequence (Q5CSM7 7-532)
[5]
  Km: 1.29 (0.32^a) mM
  Vmax: 12.1 µmol/min/mg
[6]
  Km: 0.04 mM
  Vmax: 4.64 µmol/min/mg

— paper PMC8761912, “Cryptosporidium parvum Pyruvate Kinase Inhibitors With in vivo Anti-cryptosporidial Efficacy” (Frontiers in Microbiology, 2022)
